The source made the active and inactive calls.

A short description of assay [1]: cells. It is filed as functional, cell-based.
Assay [2] can be described thus: cells. It is filed as functional, cell-based. This is another data set of the same source.
Assay [3] can be described thus: microbe, parasite or virus in culture. It counts as functional. The following applies: Mycobacterium tuberculosis.
For assay [4], the target named is Large T antigen (Simian virus 40, UniProt P03070). It counts as functional, Betapolyomavirus macacae.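 Note: Confirmatory-stage PubChem screen for compounds that inhibit SV40 T antigen.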
For assay [5], the target named is T1, Protein skinhead-1 (Caenorhabditis elegans, UniProt P34707).
T1 sequence (P34707 whole entry): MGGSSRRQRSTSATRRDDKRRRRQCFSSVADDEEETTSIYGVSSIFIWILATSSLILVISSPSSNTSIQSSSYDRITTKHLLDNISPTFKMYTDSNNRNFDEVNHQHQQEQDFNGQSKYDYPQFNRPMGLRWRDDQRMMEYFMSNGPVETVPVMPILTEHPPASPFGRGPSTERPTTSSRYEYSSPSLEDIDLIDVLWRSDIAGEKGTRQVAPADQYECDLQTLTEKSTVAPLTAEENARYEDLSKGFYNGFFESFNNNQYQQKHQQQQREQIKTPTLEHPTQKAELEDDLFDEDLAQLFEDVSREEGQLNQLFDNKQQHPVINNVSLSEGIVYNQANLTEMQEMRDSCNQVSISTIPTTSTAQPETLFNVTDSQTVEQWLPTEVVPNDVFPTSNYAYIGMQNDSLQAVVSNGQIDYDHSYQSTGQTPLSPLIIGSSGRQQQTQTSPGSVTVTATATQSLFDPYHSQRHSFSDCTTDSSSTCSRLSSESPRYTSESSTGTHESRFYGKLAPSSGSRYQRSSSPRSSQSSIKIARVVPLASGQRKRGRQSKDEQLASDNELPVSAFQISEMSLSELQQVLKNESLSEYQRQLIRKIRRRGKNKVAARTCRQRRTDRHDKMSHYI
It is filed as functional.

Assay [6] deals with Cytochrome P450 3A4 (Homo sapiens, UniProt P08684).
In assay [7] the target is T2, Cytochrome P450 1A2 (Homo sapiens, UniProt P05177).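 Note: PubChem cytochrome P450 panel assay, CYP1A2 panel member.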
T2 sequence (P05177 whole entry): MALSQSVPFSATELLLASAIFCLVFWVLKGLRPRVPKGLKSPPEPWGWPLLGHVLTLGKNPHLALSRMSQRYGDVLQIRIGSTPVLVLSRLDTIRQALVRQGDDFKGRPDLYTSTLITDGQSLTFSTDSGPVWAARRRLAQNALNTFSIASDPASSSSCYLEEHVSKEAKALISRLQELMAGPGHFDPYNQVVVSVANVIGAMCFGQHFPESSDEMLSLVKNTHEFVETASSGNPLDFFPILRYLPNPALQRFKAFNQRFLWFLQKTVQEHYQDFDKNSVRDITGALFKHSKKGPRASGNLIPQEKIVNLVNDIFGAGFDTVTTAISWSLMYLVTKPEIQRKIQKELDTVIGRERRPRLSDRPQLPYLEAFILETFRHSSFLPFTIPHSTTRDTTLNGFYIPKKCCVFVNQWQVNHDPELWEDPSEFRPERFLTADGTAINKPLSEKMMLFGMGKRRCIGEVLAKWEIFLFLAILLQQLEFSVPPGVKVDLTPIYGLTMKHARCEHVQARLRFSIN

The target of assay [8] is Cytochrome P450 2C19 (Homo sapiens, UniProt P33261). Nature of the assay: Cytochrome panel assay with activity outcomes. Panel member name: p450-cyp2c19 Compounds with AC50 equal or less than 10 uM are considered active. It is filed as functional. The following applies: read-out: AC50.
Assay [9] in a line: inhibitors of SNCA 5'UTR-driven reporter translation, confirmation, H4 neuroglioma cells, luminescence (AID 1988). It is filed as functional, cell-based.
Assay [10] is described as follows: Luminescence Cell-Based Dose Response HTS to Identify Inhibitors of 5'UTR Stem-Loop Driven Prion Protein mRNA Translation in H4 Neuroglioblastoma Cells. [Related pubchem assays: 1827 (Project Summary), 1813 (Primary HTS)]. It counts as functional.
A short description of assay [11]: inhibitors of firefly luciferase expression or activity, dose response, H4 neuroglioma cells, luminescence (AID 1990). It counts as functional, cell-based.
The nature of assay [12]: growth suppression of PTEN-null colon cells, dose response, cell-based, HCT116 PTEN knockout (AID 1047).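 Note: HCT116 colon tumor cells with PTEN knocked out; cells exposed to compound for 60 hours before readout; potency for loss of cell viability measured by luminescence.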 It counts as functional.
The nature of assay [13]: growth suppression of beta-catenin-knockout colon cells, dose response, cell-based, HCT116, human colon tumor (AID 1045).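 Note: HCT116 colon tumor cells with beta catenin knocked out; cells exposed to compound for 60 hours.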 It is filed as functional.
Assay [14] can be described thus: Luminescence Cell-Based Dose Retest to Confirm Inhibitors of Cancer Stem Cells. [Related pubchem assays (depositor defined):AID2717, AID2721]. The following applies: Homo sapiens. It is filed as functional.
The test system of assay [15] is H9c2. Nature of the assay: cells. It is filed as functional, cell-based. The following applies: Rattus norvegicus, H9c2, Myocardium.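 Note: confirmatory concentration-response retest of ultra-high-throughput screening hits for modulation of myocardial damage; cell death induced by hydrogen peroxide oxidative stress; compound pretreatment for 60 min then peroxide exposure for 2 h; potency is for protecting the cells against peroxide damage rather than for killing them.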
Assay [16] is described as follows: ZM109 Env clade C HIV-1 fusion inhibitors, dose response, HeLa effector, CEM target cells, luciferase, cherry-pick (AID 652058). It is filed as functional, cell-based.

Cytochrome P450 3A4, sequence (P08684 whole entry): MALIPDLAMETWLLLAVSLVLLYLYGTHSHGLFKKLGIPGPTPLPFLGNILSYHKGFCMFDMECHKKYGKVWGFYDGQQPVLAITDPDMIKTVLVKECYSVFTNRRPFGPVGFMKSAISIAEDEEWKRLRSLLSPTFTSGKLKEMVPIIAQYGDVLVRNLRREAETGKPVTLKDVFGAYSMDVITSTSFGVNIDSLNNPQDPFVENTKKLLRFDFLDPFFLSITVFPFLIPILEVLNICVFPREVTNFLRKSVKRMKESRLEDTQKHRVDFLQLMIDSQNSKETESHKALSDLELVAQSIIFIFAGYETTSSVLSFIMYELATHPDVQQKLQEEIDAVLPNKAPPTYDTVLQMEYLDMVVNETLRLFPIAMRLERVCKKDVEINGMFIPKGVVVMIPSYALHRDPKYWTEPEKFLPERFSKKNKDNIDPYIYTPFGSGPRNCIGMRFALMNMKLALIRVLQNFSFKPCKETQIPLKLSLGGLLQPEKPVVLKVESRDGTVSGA
Large T antigen, sequence (P03070 whole entry): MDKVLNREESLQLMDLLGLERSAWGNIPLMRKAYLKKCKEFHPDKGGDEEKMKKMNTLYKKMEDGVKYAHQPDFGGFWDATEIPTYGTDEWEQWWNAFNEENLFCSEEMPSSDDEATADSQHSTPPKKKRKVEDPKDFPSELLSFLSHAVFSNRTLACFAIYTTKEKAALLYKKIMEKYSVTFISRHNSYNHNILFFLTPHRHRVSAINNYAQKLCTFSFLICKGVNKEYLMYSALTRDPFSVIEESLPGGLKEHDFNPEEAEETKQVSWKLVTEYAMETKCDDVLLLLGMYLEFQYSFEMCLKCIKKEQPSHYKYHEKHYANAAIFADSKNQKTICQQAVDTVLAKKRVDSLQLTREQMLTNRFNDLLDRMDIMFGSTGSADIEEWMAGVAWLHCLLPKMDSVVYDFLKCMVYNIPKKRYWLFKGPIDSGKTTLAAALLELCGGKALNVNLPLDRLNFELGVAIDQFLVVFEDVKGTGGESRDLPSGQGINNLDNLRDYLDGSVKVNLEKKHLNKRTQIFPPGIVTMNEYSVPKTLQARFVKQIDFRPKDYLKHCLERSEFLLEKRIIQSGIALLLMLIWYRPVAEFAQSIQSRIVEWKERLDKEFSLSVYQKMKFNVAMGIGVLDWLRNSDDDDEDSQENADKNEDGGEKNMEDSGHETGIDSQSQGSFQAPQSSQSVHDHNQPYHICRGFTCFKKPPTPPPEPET
Cytochrome P450 2C19, sequence (P33261 whole entry): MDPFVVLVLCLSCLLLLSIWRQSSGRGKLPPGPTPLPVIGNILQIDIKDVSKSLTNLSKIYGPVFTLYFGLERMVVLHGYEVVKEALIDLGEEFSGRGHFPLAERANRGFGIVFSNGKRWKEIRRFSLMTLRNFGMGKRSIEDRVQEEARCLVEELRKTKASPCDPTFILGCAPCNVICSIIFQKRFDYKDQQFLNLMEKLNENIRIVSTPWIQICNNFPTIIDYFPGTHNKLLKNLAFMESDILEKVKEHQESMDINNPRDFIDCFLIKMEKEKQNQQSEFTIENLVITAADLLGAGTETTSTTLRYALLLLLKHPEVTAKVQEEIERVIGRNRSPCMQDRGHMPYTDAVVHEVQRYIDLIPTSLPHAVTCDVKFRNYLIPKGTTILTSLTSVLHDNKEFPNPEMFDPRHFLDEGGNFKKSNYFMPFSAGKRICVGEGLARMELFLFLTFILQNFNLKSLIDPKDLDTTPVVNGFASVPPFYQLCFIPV

Turning to `CCCn1cc(NC(=O)c2cc(-c3ccccc3)on2)cn1`, the values for the EC50 in assay [1] and in assay [2] were 2.49 µM (active) and 143 µM (active), respectively.
Consider `COc1cccc(-c2cc(C(F)(F)F)n3nc(C(=O)N4CCC5(CC4)OCCO5)cc3n2)c1`, for which the 50% effective concentration (EC50) in assay [1] and in assay [2] was > 350 µM (not active) throughout.
In the case of `Cc1cc2c(N=O)c(NO)ccc2[nH]1`, the CC50 in [3] is 5.53 µM (active). For the same molecule, the IC50 in assay [4] was 29.3 µM (active).
Turning to `COc1ccc(NC(=O)Nc2ccc(CC(=O)O)cc2)cc1`, the EC50 in assay [1] was 139 µM (active); in assay [2] it was > 350 µM (not active).
Regarding `CCc1ccc2nc(O)c(CN(CCCN3CCOCC3)C(=O)Nc3cccc(Cl)c3)cc2c1`, the CC50 in assay [3] is 15 µM (active).
`CC(C)(C)CC(=O)NC(=S)N1CCCCCC1`: in [5], the IC50 was > 100 µM (inactive). Further, the AC50 in [6] was 12.6 µM (inconclusive); in assay [7] it was 15.8 µM (inconclusive); in assay [8], 39.8 µM (inconclusive).
Take `COC(=O)CC1C(=O)NCCN1C(=O)CSc1nnc(Nc2ccc(OC)cc2)s1` (stereo unspecified): the EC50 in assay [1] and in assay [2] was > 350 µM (not active) each time.
With `CCOc1ccc(C(=O)NCC2CCCO2)cc1OCC` (stereo unspecified), the half-maximal effective concentration (EC50) in [1] and in assay [2] was > 350 µM (not active) each time.
As for `O=C(c1cc(COc2ccc(F)cc2F)on1)N1CCCC(c2ccccc2)C1` (stereo unspecified), in assay [3], the CC50 is > 40 µM (active).
Consider `S=C(NN=C1CCN(Cc2ccccc2)CC1)NC1CCCCC1`, for which the EC50 in assay [9], in [10] and in assay [11] was > 120 µM (not active) in each case. The CC50 in assay [3] is > 40 µM (active).
On to `CCOC(=O)C(C)(C)N(Cc1ccc(Cl)cc1)S(=O)(=O)c1ccc(Cl)c([N+](=O)[O-])c1`, for which the values for the EC50 in assay [12] and in assay [13] were 14.7 µM (active) and 8.15 µM (active), respectively. In assay [14], the AC50 was 2.07 µM (active).
As for `Cc1sc2nc(CN(C(=O)NC3CCCCC3)C3CCCC3)nc(O)c2c1C`, the CC50 in assay [3] was > 40 µM (active).
In the case of `CC(C)c1nc(CNC(=O)CCc2nnc(-c3ccsc3)o2)cs1`, the EC50 in assay [1] and in [2] was > 350 µM (not active) throughout.
Turning to `Cc1cc(C)cc(NC(=O)CSc2ccc(-c3ccccn3)nn2)c1`, the EC50 in [9] is 8.69 µM (active); in [10], 9.74 µM (active); in assay [1], > 350 µM (not active); in [11], 11.7 µM (active); in [2] it was > 350 µM (not active). The IC50 in assay [15] was > 79 µM (inactive). The AC50 in [14] is 4.57 µM (active).
With `Cn1cc(C(=O)c2ccc(Cl)cc2)cc1-c1nc2ccccc2n1C`, in assay [3], the CC50 is > 40 µM (active).
`CCCCCCn1c(COc2ccccc2F)nnc1SCC(=O)N1c2ccccc2NC(=O)C1(C)C`: the 50% effective concentration (EC50) in assay [12] was 23.5 µM (active); in assay [13], 26.5 µM (active).
On to `Cc1ccc(C)c(-c2cc(C(=O)Nc3cccc(C(=O)O)c3)c3ccccc3n2)c1`, for which the EC50 in assay [1] and in assay [2] was > 350 µM (not active) in each case.
On to `O=C(Nc1ccc(F)cc1)Nc1ccc2c(c1)[C@@H]1C[C@H](CC(=O)N3CCCCC3)O[C@H](CO)[C@@H]1O2`, for which, in assay [16], the AC50 was 62.5 µM (active).
For the molecule `CCc1[nH]nc2c1/C(=N\O)CC(c1ccccc1)C2` (stereo unspecified), the figures for the EC50 in assay [12] and in [13] were 61.3 µM (active) and 91.4 µM (active), respectively.
For `CCC(/C=C(\O)c1cccnc1)=N\c1ccc(C)c(C)c1`, in assay [3], the CC50 is > 40 µM (active).
Regarding `O=[N+]([O-])c1cccc(/C=N/Nc2nc(C(Cl)(Cl)Cl)nc3ccccc23)c1`, the half-maximal effective concentration (EC50) in assay [12] is 24.4 µM (active); in assay [13] it was 25.2 µM (active).

These data come from ChEMBL document CHEMBL1201862, “PubChem BioAssay data set” (2004).
